Test results: patent US4578392A, “Pyrazolo[1,5-a]pyridine derivatives and anti-allergic compositions containing them” (Kyorin Pharmaceutical Co., Ltd., priority 1983, dated 1986)

Tests used:
SRS-A = experiment: Antagonistic action against SRS-A (SRS-A induced contraction of isolated guinea pig ileum); conditions: 3 U/ml SRS-A, 5 minutes incubation, tripelennamine and atropine in Tyrode solution
Experimental: The anti-SRS-A action of the compounds of this invention was evaluated using isolated guinea pig ileum. Short segments of guinea pig terminal ileum were suspended in Tyrode solution containing tripelennamine (3×10^-7 g/ml) and atropine (3×10^-7 g/ml) and their contractions induced by an addition to the organ bath of 3 U/ml SRS-A* were recorded. The ileum was again contracted after incubation with test compounds for 5 minutes by adding the same amount of SRS-A. The anti-SRS-A action is given in Table 6 as IC50 values which indicate the concentration of test compound required to inhibit SRS-A induced ileal contraction by 50%.
*: The SRS-A used in this experiment was prepared from anaphylactic guinea pig lungs. One unit of SRS-A refers to the amount required to produce a contraction of the guinea pig ileum equal in amplitude to that produced by 5 ng histamine base.

[1] = test system: SRS-A-induced component of anaphylactic bronchoconstriction; experiment: Inhibitory activity on bronchial anaphylaxis in conscious guinea pigs (SRS-A preferentially involved in bronchoconstriction); type: in vivo, guinea pig; conditions: Cavia porcellus; oral; actively sensitized (egg albumin) conscious guinea pigs, 10 mg/kg diphenhydramine intraperitoneally, inhaled antigen; read-out: ED75 (oral dose required to protect 75% of animals from respiratory distress caused by antigen challenge)
Experimental: The effect of the compounds of this invention on bronchial anaphylactic reaction in vivo was evaluated using conscious guinea pigs in a condition where SRS-A was preferentially involved in bronchoconstriction (Boot, J. R. et al.: Int. Arch. Allergy Appl. Immunol. 67, 340 (1982)). The guinea pigs which had been sensitized actively with egg albumin 3 to 4 weeks prior were given intraperitoneally with 10 mg/kg diphenhydramine. In these animals, inhaled antigen caused a marked respiratory distress due to bronchoconstriction. The ED75 values in Table 7 indicate the oral dose of test compound required to protect 75% of animals from respiratory distress caused by antigen challenge.

Structure (SMILES)	Antagonistic activity against SRS-A IC50 (SRS-A) [µg/mL]	ED75 [1] [mg/kg]
COC(c1c(C(C)C)nn2cc(C)ccc12)C(C)C (centres unmarked) [Example 26]	18.4	–
CC(C)c1nn2ccccc2c1C(O)C1CCCC1 (centres unmarked) [Example 6]	10.3	–
COCc1c(C(C)C)nn2ccccc12 [Example 37, 2-Isopropyl-3-methoxymethylpyrazolo[1,5-a]pyridine]	14.7	–
CCCC(O)c1c(C(C)C)nn2ccccc12 (centres unmarked) [Example 9]	26.8	–
CCC(O)(c1c(C(C)C)nn2ccccc12)C(C)C (centres unmarked) [Example 15, 2-Isopropyl-3-(1-hydroxy-1-ethyl-2-methylpropyl)pyrazolo[1,5-a]pyridine]	1.75	0.68
CCCC(O)(c1c(C(C)C)nn2ccccc12)C(C)C (centres unmarked) [Example 17]	2.03	0.75
CCCCCCC(O)(c1c(C(C)C)nn2ccccc12)C(C)C (centres unmarked) [Example 19]	2.14	–
CC(C)c1nn2ccccc2c1C(C)C(C)C (centres unmarked) [Example 44]	1.6	0.5
C=CCC(O)(c1c(C(C)C)nn2ccccc12)C(C)C (centres unmarked) [Example 20]	1.51	0.5
C=C(c1c(C(C)C)nn2ccccc12)C(C)C [Example 41]	2.45	–
CCCOC(c1c(C(C)C)nn2ccccc12)C(C)C (centres unmarked) [Example 24]	5.09	–
CC=C(c1c(C(C)C)nn2ccccc12)C(C)C [Example 42]	0.44	–
CC(C)Cc1c(C(C)C)nn2ccccc12 [Example 43]	2.7	–
CC(C)c1nn2ccccc2c1C(OCC1CO1)C(C)C (centres unmarked) [Example 34, 2-isopropyl-3-[1-(2,3-epoxypropoxy)-2-methylpropyl]pyrazolo[1,5-a]pyridine]	7.33	–
CC(C)=Cc1c(C(C)C)nn2ccccc12 [Example 40]	2.7	–
COC(c1c(C(C)C)nn2ccccc12)C(C)C (centres unmarked) [Example 21, 2-Isopropyl-3-(1-methoxy-2-methylpropyl)pyrazolo[1,5-a]pyridine]	6.6	0.36
CCCc1nn2ccccc2c1C(O)CCC (centres unmarked) [Example 11]	16.4	–
Cn1c(=O)c2[nH]cnc2n(C)c1=O [Aminophylline, reference compound]	–	3.5
CCCc1c(C(C)C)nn2ccccc12 [Example 39, 2-Isopropyl-3-propylpyrazolo[1,5-a]pyridine]	2.8	–

Structure (SMILES)	Antagonistic activity against SRS-A IC50 (SRS-A) [µg/mL]	ED75 [1] [mg/kg]
C=CCOC(CC)(c1c(C(C)C)nn2ccccc12)C(C)C (centres unmarked) [Example 31, 2-isopropyl-3-(1-allyloxy-1-ethyl-2-methylpropyl)pyrazolo[1,5-a]pyridine]	0.27	0.5
Cc1nn2ccccc2c1C(O)C(C)C (centres unmarked) [Example 10]	10.3	–
C=CCOC(CCC)(c1c(C(C)C)nn2ccccc12)C(C)C (centres unmarked) [Example 32]	0.52	2
COc1ccc2c(C(OC)C(C)C)c(C(C)C)nn2c1 (centres unmarked) [Example 28]	7.36	–
CC(C)c1nn2ccccc2c1C(C)(O)C(C)C (centres unmarked) [Example 16]	23.5	–
CCC(OC)(c1c(C(C)C)nn2ccccc12)C(C)C (centres unmarked) [Example 30]	1.52	1
C=CCOC(c1c(C(C)C)nn2cc(OC)ccc12)C(C)C (centres unmarked) [Example 29]	3.84	–
CCOC(c1c(C(C)C)nn2ccccc12)C(C)C (centres unmarked) [Example 22]	7.2	–
CCC(O)c1c(C(C)C)nn2ccccc12 (centres unmarked) [Example 8, 2-isopropyl-3-(1-hydroxypropyl)pyrazolo[1,5-a]pyridine]	27	–
CC(C)c1nn2ccccc2c1C(O)C(C)C (centres unmarked) [Example 5, 2-Isopropyl-3-(1-hydroxy-2-methylpropyl)pyrazolo[1,5-a]pyridine]	1.75	0.48
CCCOC(CC)(c1c(C(C)C)nn2ccccc12)C(C)C (centres unmarked) [Example 35, 2-Isopropyl-3-(1-ethyl-1-propoxy-2-methylpropyl)pyrazolo[1,5-a]pyridine]	1.23	0.5
C=CCOC(c1c(C(C)C)nn2ccccc12)C(C)C (centres unmarked) [Example 23]	1.06	0.5
CCCCC(O)(c1c(C(C)C)nn2ccccc12)C(C)C (centres unmarked) [Example 18]	0.84	0.5
C=CCOC(c1c(C(C)C)nn2cc(C)ccc12)C(C)C (centres unmarked) [Example 27]	3.93	–
CCCCOC(c1c(C(C)C)nn2ccccc12)C(C)C (centres unmarked) [Example 25]	9.98	–
C=CCOC(CCCC)(c1c(C(C)C)nn2ccccc12)C(C)C (centres unmarked) [Example 33]	2.36	–
COc1ccc2c(C(O)C(C)C)c(C(C)C)nn2c1 (centres unmarked) [Example 13]	4.9	0.5
CC(O)COC(c1c(C(C)C)nn2ccccc12)C(C)C (centres unmarked) [Example 36, 2-Isopropyl-3-[1-(2-hydroxypropoxy)-2-methylpropyl]pyrazolo[1,5-a]pyridine]	14.9	–
